# From patent US10682319B2, “Necrosis inhibitors” (National Institute of Biological Sciences, Beijing, priority 2014, dated 2020)
# Tested on: HT-29 cells
# Assay: Necrosis assay (TNF-α/Smac mimetic/z-VAD induced necrosis, cell viability by ATP level)
# Assay type: cell-based
# Details: HT-29, TNF-α + Smac mimetic + z-VAD, 24 hrs, ATP level; values given as ranges in nM; read-out: EC50 (inhibition of necrosis in HT-29 cells)
# Description: HT-29 cells were cultured in McCoy's 5 A culture medium (Invitrogen). On day one, HT-29 cells were plated in 96-well assay plates at density of 2,500-3,500 cells per well. On day two, necrosis were induced by adding 20 ng/ml TNF-α (T), 100 nM Smac mimetic (S), and […] z-VAD (Z). At the same time, […] compound from a chemical library of ˜200,000 compounds was delivered into each well. After 24 hrs treatment, cell viability was determined by measuring ATP level using the CellTiter-Glo Luminescent Cell Viability Assay kit. A CellTiter-Glo Assay (Promega) was performed according to the manufacturer's instructions Luminescence was recorded with a PerkinElmer EnSpire Multimode Plate Reader. Survived cells were normalized to those cells treated with DMSO. Nec-1 was used as a positive control for screening necrosis inhibitors. Data are represented as mean±standard deviation of duplicates
# Dose-dependent inhibition of necrosis by the compounds in HT-29 cells were determined by measuring ATP levels as described above.
row,SMILES,EC50 [nM]
1,"CCC(C)(C)C(=O)N(O)Cc1ccc(F)c(F)c1 [Compound 95, N-(3,4-difluorobenzyl)-N-hydroxy-2,2-dimethylbutanamide]",1 to 1000
2,"CCC(C)(C)C(=O)N(O)Cc1ccc(F)cc1 [Compound 94, N-(4-fluorobenzyl)-N-hydroxy-2,2-dimethylbutanamide]",1 to 1000
3,"CCC(C)(C)C(=O)NCc1ccccc1 [Compound 58, N-benzyl-2,2-dimethylbutanamide]",1 to 1000
4,"CCC(C)(C)C(=O)N(C)CC1CCCCC1 [Compound 39, N-(cyclohexylmethyl)-N,2,2-trimethylbutanamide]",1 to 1000
5,"CCC(C)(C)C(=O)N(C)Cc1cccs1 [Compound 40, N,2,2-trimethyl-N-(thiophen-2-ylmethyl)butanamide]",1 to 1000
6,"CCC(C)(C)C(=O)N(C)Cc1ccc(F)c(F)c1 [Compound 91, N-(3,4-difluorobenzyl)-N,2,2-trimethylbutanamide]",1 to 1000
7,"CCC(C)(C)C(=O)N(C)Cc1ccc(F)cc1F [Compound 24, N-(2,4-difluorobenzyl)-N,2,2-trimethylbutanamide]",1 to 1000
8,"CC(F)(F)C(C)(C)C(=O)N(O)Cc1ccccc1 [Compound S6, N-benzyl-3,3-difluoro-N-hydroxy-2,2-dimethylbutanamide]",1 to 1000
9,"CCC(C)(C)C(=O)NCc1cc(F)cc(F)c1F [Compound 70, 2,2-dimethyl-N-(2,3,5-trifluorobenzyl)butanamide]",1 to 1000

# Same assay, conditions: Homo sapiens, HT-29, 24 h, HT-29, TNF-α + Smac mimetic + z-VAD, 24 hrs, ATP level; values given as ranges in uM; read-out: EC50 (inhibition of necrosis in HT-29 cells)
row,SMILES,EC50 [nM]
1,CCC(C)(C)C(=O)N(Cc1cc(F)c(F)c(F)c1)OC [Compound 134],1000 to 100000
2,"CCC(C)(C)C(=O)N(C)Cc1cc(F)ccc1Br [Compound 56, N-(2-bromo-5-fluorobenzyl)-N,2,2-trimethylbutanamide]",1000 to 10000
3,"CCC1(C(=O)N(C)Cc2cc(F)c(F)c(F)c2)CCC1 [Compound 88, 1-ethyl-N-methyl-N-(3,4,5-trifluorobenzyl)cyclobutanecarboxamide]",1000 to 100000
4,CCC(C)(C)C(=O)N(Cc1cc(F)cc(F)c1F)OC [Compound 135],1000 to 100000
5,"CCC(C)(C)C(=O)N(C)Cc1cnc2ccccc2c1 [Compound 47, N,2,2-trimethyl-N-(quinolin-3-ylmethyl)butanamide]",1000 to 100000
6,"CCC(C)(C)C(=O)N[C@@H](CC(=O)NCCOCCOC)c1ccccc1 [Compound 102, (S)—N-(3-((2-(2-methoxyethoxy)ethyl)amino)-3-oxo-1-phenylpropyl)-2,2-dimethylbutanamide]",1000 to 100000
7,"CCC(C)(C)C(=O)N(C)Cc1sccc1C [Compound 41, N,2,2-trimethyl-N-((3-methylthiophen-2-yl)methyl)butanamide]",1000 to 10000
8,CCC(C)(C)C(=O)N(Cc1cc(F)c(F)cc1F)OC [Compound 133],1000 to 100000
9,"CCC(C)(C)C(=O)N(CCCOC)Cc1cccc(F)c1 [Compound 63, N-(3-fluorobenzyl)-N-(3-methoxypropyl)-2,2-dimethylbutanamide]",1000 to 100000
10,CCC(C)(C)C(=O)N(Cc1ccc(F)cc1F)OC [Compound 131],1000 to 100000
11,"CCC(C)(C)C(=O)N(C)Cc1cccc(C(=O)OC)c1 [Compound 23, methyl 3-((N,2,2-trimethylbutanamido)methyl)benzoate]",1000 to 100000
12,"CN(Cc1ccccc1F)C(=O)C1CCCCC1 [Compound 60, N-(2-fluorobenzyl)-N-methylcyclohexanecarboxamide]",1000 to 10000
13,"CCC(C)(C)C(=O)N(CCC(C)=O)Cc1ccccc1F [Compound 12, N-(2-fluorobenzyl)-2,2-dimethyl-N-(3-oxobutyl)butanamide]",1000 to 10000
14,"CCC(C)(C)C(=O)N[C@@H](C(=O)NCCc1ccccc1)c1ccccc1 [Compound 125, (R)-2,2-dimethyl-N-(2-oxo-2-(phenethylamino)-1-phenylethyl)butanamide]",1000 to 100000
15,"CCC(C)(C)C(=O)N(C)C(C)c1ccccc1 (centres unmarked) [Compound 53, N,2,2-trimethyl-N-(1-phenylethyl)butanamide]",1000 to 100000
16,"CCC(C)(C)C(=O)N[C@@H](C(=O)NC)c1ccccc1 [Compound 122, (R)-2,2-dimethyl-N-(2-(methylamino)-2-oxo-1-phenylethyl)butanamide]",1000 to 100000
17,"CCC(C)(C)C(=O)N(C)Cc1cc(C)cc(C)c1 [Compound 32, N-(3,5-dimethylbenzyl)-N,2,2-trimethylbutanamide]",1000 to 100000
18,"CCC(C)(C)C(=O)N(C)Cc1cccnc1OC [Compound 37, N-((2-methoxypyridin-3-yl)methyl)-N,2,2-trimethylbutanamide]",1000 to 100000
19,"CCC(C)(C)C(=O)NC(CO)c1ccccc1 (centres unmarked) [Compound 110, N-(2-hydroxy-1-phenylethyl)-2,2-dimethylbutanamide]",1000 to 100000
20,"COCC(C)(C)C(=O)N(C)Cc1cc(F)c(F)c(F)c1 [Compound 71, 3-methoxy-N,2,2-trimethyl-N-(3,4,5-trifluorobenzyl)propanamide]",1000 to 100000
21,"CCC(C)(C)C(=O)N[C@@H](CC(=O)NC1CCCCC1)c1ccccc1 [Compound 104, (S)—N-(3-(cyclohexylamino)-3-oxo-1-phenylpropyl)-2,2-dimethylbutanamide]",1000 to 100000
22,"CCN(Cc1ccc(F)cc1F)C(=O)C(C)(C)CC [Compound 29, N-(2,4-difluorobenzyl)-N-ethyl-2,2-dimethylbutanamide]",1000 to 10000
23,CON(Cc1ccc(F)cc1F)C(=O)C(C)(C)C(C)(F)F [Compound S16],1000 to 100000
24,"CN(Cc1cc(F)cc(F)c1F)C(=O)C1(C(F)(F)F)CCCC1 [Compound 86, N-methyl-N-(2,3,5-trifluorobenzyl)-1-(trifluoromethyl)cyclopentanecarboxamide]",1000 to 100000

row,SMILES,EC50 [nM]
1,"CC(C)NC(=O)N(C)Cc1ccccc1F [Compound 114, 1-(2-fluorobenzyl)-3-isopropyl-1-methylurea]",1000 to 100000
2,"CCC1CCCCN1C(=O)N(C)Cc1cc(F)cc(F)c1F (centres unmarked) [Compound 116, 2-ethyl-N-methyl-N-(2,3,5-trifluorobenzyl)piperidine-1-carboxamide]",1000 to 100000
3,"CCC(C)(C)C(=O)NCc1ccccc1F [Compound 1, N-(2-fluorobenzyl)-2,2-dimethylbutanamide]",1000 to 10000
4,CC(F)(F)C(C)(C)C(=O)N(O)Cc1ccc(F)c(F)c1 [Compound S11],1000 to 100000
5,"CCC(C)(C)C(=O)N(C)C(COC)c1ccccc1 (centres unmarked) [Compound 112, N-(2-methoxy-1-phenylethyl)-N,2,2-trimethylbutanamide]",1000 to 100000
6,"CCC(C)(C)C(=O)N(C)Cc1ccc2ccccc2c1 [Compound 46, N,2,2-trimethyl-N-(naphthalen-2-ylmethyl)butanamide]",1000 to 100000
7,"CCC(C)(C)C(=O)N(C)Cc1ccc(F)cc1 [Compound S7, N-(4-fluorobenzyl)-N,2,2-trimethylbutanamide]",1000 to 10000
8,"CCC(C)(C)C(=O)N(C)Cc1cccc(C)c1C [Compound 31, N-(2,3-dimethylbenzyl)-N,2,2-trimethylbutanamide]",1000 to 100000
9,CCC(C)(C)C(=O)N(C)[C@@H](CO)c1ccccc1F [Compound 148],1000 to 100000
10,C=CC(C)(C)C(=O)N(O)Cc1sc(C)cc1C [Compound 146],1000 to 100000
11,CON(Cc1ccc(F)c(F)c1)C(=O)C(C)(C)C(C)(F)F [Compound S17],1000 to 100000
12,"CCC(C)(C)C(=O)N[C@@H](CC(=O)NCCc1ccccc1)c1ccccc1 [Compound 108, (S)-2,2-dimethyl-N-(3-oxo-3-(phenethylamino)-1-phenylpropyl)butanamide]",1000 to 100000
13,"CCC(C)(C)C(=O)N(C)Cc1cccc(Br)c1 [Compound 19, N-(3-bromobenzyl)-N,2,2-trimethylbutanamide]",1000 to 10000
14,C=CC(C)(C)C(=O)N(O)Cc1sccc1C [Compound 145],1000 to 100000
15,"CN(Cc1ccccc1F)C(=O)CC(C)(C)C [Compound 59, N-(2-fluorobenzyl)-N,3,3-trimethylbutanamide]",1000 to 10000
16,"CCC(C)(C)C(=O)N(C)C(CO)c1ccccc1 (centres unmarked) [Compound 111, N-(2-hydroxy-1-phenylethyl)-N,2,2-trimethylbutanamide]",1000 to 100000
17,"CCC(C)(C)C(=O)N[C@@H](C(=O)N(C)C)c1ccccc1 [Compound 123, (R)—N-(2-(dimethylamino)-2-oxo-1-phenylethyl)-2,2-dimethylbutanamide]",1000 to 100000
18,"CCC(C)(C)C(=O)NCc1cccc(Br)c1 [Compound 6, N-(3-bromobenzyl)-2,2-dimethylbutanamide]",1000 to 10000
19,"CN(Cc1cc(F)cc(F)c1F)S(=O)(=O)C1CCCCC1 [Compound 79, N-methyl-N-(2,3,5-trifluorobenzyl)cyclohexanesulfonamide]",1000 to 100000
20,"CN(Cc1cc(F)c(F)c(F)c1)C(=O)C1C(C)(C)C1(C)C [Compound 81, N,2,2,3,3-pentamethyl-N-(3,4,5-trifluorobenzyl)-cyclopropanecarboxamide]",1000 to 100000
21,"CC(C)(C)C(=O)NCc1ccccc1 [Compound 2, N-benzylpivalamide]",1000 to 10000
22,"CCC(C)(C)C(=O)N(C)Cc1cccc(OC)c1 [Compound 20, N-(3-methoxybenzyl)-N,2,2-trimethylbutanamide]",1000 to 100000
23,"CN(Cc1cc(F)c(F)c(F)c1)C(=O)C(C)(C)CO [Compound 66, 3-hydroxy-N,2,2-trimethyl-N-(3,4,5-trifluorobenzyl)propanamide]",1000 to 100000
